{"source": "patent US20260274836A1", "about": "“NOVEL HEPATOSELECTIVE POLYADENYLATING POLYMERASES INHIBITORS AND THEIR METHOD OF USE” (Baruch S. Blumberg Institute, priority 2022, published 2026)", "key": {"OATP1B3": {"biological_target": "T1, OATP1B3 (Homo sapiens, UniProt Q9NPD5)", "T1 construct": "expressed in transfected cells; host or cells: HEK293", "T1 sequence (Q9NPD5 1-702)": "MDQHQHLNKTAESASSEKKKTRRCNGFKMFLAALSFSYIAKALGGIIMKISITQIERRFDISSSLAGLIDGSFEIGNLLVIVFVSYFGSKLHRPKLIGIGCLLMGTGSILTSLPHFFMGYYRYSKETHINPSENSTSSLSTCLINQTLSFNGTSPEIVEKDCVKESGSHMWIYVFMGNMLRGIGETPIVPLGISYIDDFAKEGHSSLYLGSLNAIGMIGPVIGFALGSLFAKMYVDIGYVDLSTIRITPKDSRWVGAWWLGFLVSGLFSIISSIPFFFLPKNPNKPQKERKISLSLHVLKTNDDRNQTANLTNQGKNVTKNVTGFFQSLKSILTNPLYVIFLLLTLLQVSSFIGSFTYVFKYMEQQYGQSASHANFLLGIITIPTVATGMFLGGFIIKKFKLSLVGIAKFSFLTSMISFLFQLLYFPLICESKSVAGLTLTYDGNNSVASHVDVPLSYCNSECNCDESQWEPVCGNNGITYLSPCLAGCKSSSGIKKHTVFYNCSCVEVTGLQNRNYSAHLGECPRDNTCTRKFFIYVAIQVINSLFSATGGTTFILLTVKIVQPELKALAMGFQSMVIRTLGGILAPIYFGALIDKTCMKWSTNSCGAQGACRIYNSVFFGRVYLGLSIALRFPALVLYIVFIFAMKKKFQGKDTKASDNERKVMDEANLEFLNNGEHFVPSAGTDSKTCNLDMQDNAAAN", "assay": "OATP1B3 transporter substrate uptake in OATP1B3-HEK293 cells", "format": "in vitro ADME", "description": "Protocol for identification of compounds that are substrates of transporters OATPIBI and OATPIB3. Transfected HEK293 and vector control HEK293 cells were cultured in 24-well poly-D-lysine or collagen-coated tissue culture plates ([…]) for 2 and 10 minutes respectively in transport buffer (HBSSg, pH 7.4, pre-warmed to 37° C.). At a defined time point, the uptake experiments were stopped by removing dosing solution followed by two washes of ice-cold HBSSg buffer. The cells were lysed for 2 minutes with 75% ACN containing an appropriate internal standard (when available). Lysis buffer were chilled to −20° C., and the plate was kept on ice during lysis. The cell lysate was transferred into a 96-well plate for sample analysis with LC-MS/MS analysis to determine concentration of test compound in cell lysate. The uptake of test compounds was normalized by total cell protein using the BCA Protein Assay Kit following the manufacturer's protocol. The inhibitor Rifamycin SV was used to block OATP1B1 and OATP1B3 transporter activity in order to determine uptake ratios."}, "[1]": {"system": "18f-NLuc reporter virus (HM175/18f HAV)", "assay": "Antiviral activity against human hepatitis A virus, 18f-NLuc reporter virus in Huh-7 cells", "format": "cell-based, Human Hepatitis A Virus (Hepatovirus A)", "conditions": "Hepatovirus A, Huh-7, 48 h, Huh-7 cells, 18f-NLuc virus, 48 hrs", "description": "Assay for Antiviral Activity Against Human Hepatitis A Virus (Hepatovirus A).\n(§1) Assays for the anti-HAV activity of the hepatoselective DHQ compounds were carried out in Huh-7 human hepatoma cells using the 18f-NLuc reporter virus, which expresses nanoluciferase (NLuc) from sequence inserted into the polyprotein coding region of the HM175/18f HAV genome between the VP1pX and 2B coding sequences (Yamane et al., 2019). The method was modified minimally from that described by Misumi et al. for iminosugar compounds (Misumi et al., 2021). Cells (approximately […]) were plated in wells of a 96-well plate with Dulbecco's modified Eagle medium (DMEM) and 10% fetal bovine serum. The cells were inoculated 24 hrs later with 18f-NLuc virus (approximately 10^6-10^7 genome equivalents) in medium containing increasing concentrations of the compounds of interest. The cells were re-incubated for 48 hrs at 37° C. in a 5% CO2 environment, then lysed in 1× passive lysis buffer (Promega) for 15 min at room temperature. Cell lysates were transferred to an opaque white 96-well plate (Corning, 3912) and NLuc assay carried out using the NLuc GLOW Assay kit (Nanolight Technology). Luminescence was measured using a Biotek Synergy II multi-mode plate reader (BioTek Instruments). The percent inhibition of replication was calculated by determining the reduction in NLuc activity from that expressed by infected cells incubated in parallel in the absence of compound, and 50% inhibitory endpoints estimated by fitting the data to a four parameter variable slope logistic curve using Prism 9 for Mac OS software (GraphPad). Cell toxicity of the compounds was assessed using the WST-1 Cell Proliferation Reagent (Sigma-Aldrich) at the end of the treatment period in parallel cultures of uninfected cells, with WST-1 reagent added to cultures for 1 hr prior to harvest and O.D. reading.\nas §1, with “Additional exemplary compounds of the present invention are evaluated for anti-HAV activity in accordance with certain assays described hereinabove. As discussed above, assays” for “Assays”, “10^6-107” for “10^6-10^7”"}}, "data": [{"smiles": "COc1cc2c(cc1OCCCCCCC(=O)O)C[C@@H](C(C)C)n1cc(C(=O)O)c(=O)cc1-2", "note": "[Example 6, (S)-9-((6-carboxyhexyl)oxy)-6-isopropyl-10-methoxy-2-oxo-6,7-dihydro-2H-pyrido[2,1-a]isoquinoline-3-carboxylic acid]", "values": [{"measurement": "Uptake Ratio (−/+Inhibitor)", "setting": "OATP1B3; OATP1B3-HEK293 cells, test concentration 1 μM, inhibitor Rifamycin SV", "value": 11.57}, {"measurement": "Uptake Ratio (Transporter(−Inhibitor)/Mock(−Inhibitor))", "setting": "OATP1B3; OATP1B3-HEK293 vs mock HEK293, test concentration 1 μM", "value": 24.80}, {"measurement": "EC50", "setting": "[1]", "value": 278, "unit": "nM"}]}]}
